The NIST ThermoML archive (doi:10.1016/j.fluid.2012.06.013)

Assays:
[1] = Liquid; for mass density: 298.15 K, Vibrating tube method
[2] = refractive index (Na D-line) (dimensionless); conditions: 298.15 K; 101.33 kPa; Liquid; Standard Abbe refractometry
[3] = xn = mol fraction of the nth substance listed; conditions: 298.15 K, 101 kPa, Liquid, Vibrating tube method

CC(=O)OCC(C)C [2-methylpropyl ethanoate]
[1]
Conditions | Normal boiling temperature [°C] | mass density [kg/m3]
101.33 kPa | – | 866.2
Ebulliometric method (Recirculating still) | 116.29 | –

Conditions | vapor or sublimation pressure [kPa]
[1], 461.03 K, Ebulliometric method (Recirculating still) | 600

Conditions | refractive index
[2] | 1.3882

CC(=O)OCC(C)C [2-methylpropyl ethanoate] + CC(C)O
[3]
Conditions | mass density [kg/m3]
x1 = 0.051 | 787.4
x1 = 0.126 | 796.2
x1 = 0.204 | 804.7
x1 = 0.235 | 807.9
x1 = 0.352 | 819.1
x1 = 0.407 | 824
x1 = 0.501 | 831.8
x1 = 0.549 | 835.6
x1 = 0.677 | 845.1
x1 = 0.752 | 850.3
x1 = 0.799 | 853.5
x1 = 0.868 | 857.9
x1 = 0.949 | 863.1
x1 = 1 | 866.2

CC(=O)OCC(C)C [2-methylpropyl ethanoate] + CCCO
[3]
Conditions | mass density [kg/m3]
x1 = 0.053 | 805.4
x1 = 0.092 | 809.3
x1 = 0.145 | 814.5
x1 = 0.196 | 819.1
x1 = 0.249 | 823.5
x1 = 0.302 | 827.6
x1 = 0.346 | 830.9
x1 = 0.444 | 837.6
x1 = 0.482 | 840
x1 = 0.508 | 841.6
x1 = 0.565 | 845
x1 = 0.613 | 847.7
x1 = 0.719 | 853.3
x1 = 0.751 | 854.9
x1 = 0.804 | 857.5
x1 = 0.854 | 859.8
x1 = 0.889 | 861.4
x1 = 0.909 | 862.3
x1 = 0.953 | 864.2
x1 = 1 | 866.2

CC(=O)OCC(C)C [2-methylpropyl ethanoate] + CCO
[3]
Conditions | mass density [kg/m3]
x1 = 0.09 | 799.8
x1 = 0.153 | 808.3
x1 = 0.22 | 816.2
x1 = 0.277 | 822.2
x1 = 0.349 | 828.9
x1 = 0.44 | 836.3
x1 = 0.563 | 844.8
x1 = 0.657 | 850.4
x1 = 0.742 | 854.9
x1 = 0.85 | 860
x1 = 0.898 | 862.1
x1 = 0.942 | 863.9
x1 = 1 | 866.2

CCO [ethanol]
Conditions | mass density [kg/m3]
[1], 101 kPa | 785.2

Conditions | vapor or sublimation pressure [kPa]
[1], 405.53 K, Ebulliometric method (Recirculating still) | 600

CCO [ethanol] + CC(=O)OCC(C)C
Conditions | mass density [kg/m3]
[3], x2 = 0 | 785.2

CCCO [propan-1-ol]
[1]
Conditions | Normal boiling temperature [°C] | mass density [kg/m3]
101.33 kPa | – | 799.6
Ebulliometric method (Recirculating still) | 97.29 | –

[1]
Conditions | vapor or sublimation pressure [kPa]
313.98 K, Closed cell (Static) method | 8
325.46 K, Closed cell (Static) method | 14
331.28 K, Closed cell (Static) method | 18
335.02 K, Closed cell (Static) method | 22
339.49 K, Closed cell (Static) method | 28
343.81 K, Closed cell (Static) method | 34
347.33 K, Closed cell (Static) method | 40
351.55 K, Closed cell (Static) method | 48
353.46 K, Closed cell (Static) method | 52
356.16 K, Closed cell (Static) method | 58
359.07 K, Closed cell (Static) method | 66
361.64 K, Closed cell (Static) method | 72
363.69 K, Closed cell (Static) method | 78
366.43 K, Closed cell (Static) method | 88
367.86 K, Closed cell (Static) method | 92
372.66 K, Closed cell (Static) method | 110
374.63 K, Closed cell (Static) method | 118
376.34 K, Closed cell (Static) method | 126
378.84 K, Closed cell (Static) method | 138
380.75 K, Closed cell (Static) method | 148
382.61 K, Closed cell (Static) method | 158
384.08 K, Closed cell (Static) method | 166
385.46 K, Closed cell (Static) method | 174
386.6 K, Closed cell (Static) method | 182
387.29 K, Closed cell (Static) method | 186
389.05 K, Closed cell (Static) method | 198
390.26 K, Closed cell (Static) method | 206
391.39 K, Closed cell (Static) method | 214
393.67 K, Closed cell (Static) method | 230
398.52 K, Closed cell (Static) method | 260
406.65 K, Closed cell (Static) method | 340
410.69 K, Closed cell (Static) method | 382
414.02 K, Closed cell (Static) method | 420
417.3 K, Closed cell (Static) method | 460
418.84 K, Closed cell (Static) method | 475
421.54 K, Closed cell (Static) method | 512
423.55 K, Closed cell (Static) method | 545
427.2 K, Ebulliometric method (Recirculating still) | 600
427.98 K, Closed cell (Static) method | 612
430.49 K, Closed cell (Static) method | 655
432.23 K, Closed cell (Static) method | 685
434.42 K, Closed cell (Static) method | 722
436.33 K, Closed cell (Static) method | 755
439.88 K, Closed cell (Static) method | 825
441.78 K, Closed cell (Static) method | 865
443 K, Closed cell (Static) method | 890
444.97 K, Closed cell (Static) method | 935
448.1 K, Closed cell (Static) method | 1007
449.6 K, Closed cell (Static) method | 1043
452.29 K, Closed cell (Static) method | 1112
453.22 K, Closed cell (Static) method | 1135
454.7 K, Closed cell (Static) method | 1175
456 K, Closed cell (Static) method | 1210
457.19 K, Closed cell (Static) method | 1245
458.54 K, Closed cell (Static) method | 1282
459.71 K, Closed cell (Static) method | 1317
460.87 K, Closed cell (Static) method | 1352
461.97 K, Closed cell (Static) method | 1387
463.21 K, Closed cell (Static) method | 1425
464.18 K, Closed cell (Static) method | 1455
465.41 K, Closed cell (Static) method | 1495
466.65 K, Closed cell (Static) method | 1535
467.43 K, Closed cell (Static) method | 1562
468.64 K, Closed cell (Static) method | 1602
469.46 K, Closed cell (Static) method | 1630

Conditions | refractive index
[2] | 1.3837

CCCO [propan-1-ol] + CC(=O)OCC(C)C
Conditions | mass density [kg/m3]
[3], x2 = 0 | 799.6

CC(C)O [propan-2-ol]
[1]
Conditions | Normal boiling temperature [°C] | mass density [kg/m3]
101.33 kPa | – | 781.3
Ebulliometric method (Recirculating still) | 82.38 | –

Conditions | vapor or sublimation pressure [kPa]
[1], 410.08 K, Ebulliometric method (Recirculating still) | 600

Conditions | refractive index
[2] | 1.3751

CC(C)O [propan-2-ol] + CC(=O)OCC(C)C
Conditions | mass density [kg/m3]
[3], x2 = 0 | 781.3
